Measured values published in patent US10072017B2, “Compounds and methods for the treatment of cystic fibrosis” (Flatley Discovery Lab, LLC, priority 2015, dated 2018).

Molecular target: T1, CFTR (Homo sapiens, UniProt P13569, DEL508-508)
T1 construct: Primary CF airway epithelial cells were obtained from the UNC Cystic Fibrosis Tissue Procurement and Cell Culture Core; host or cells: primary CF airway epithelial cells
Assay: Equivalent current assay in Primary CF airway epithelial cells (NAUC)
Assay type: cell-based
Details: 24 h, normalized to VX809 (3 μM) positive control; for Nauc @ 3 μM: 3 μM test compound; for Nauc @ 10 μM: 10 μM test compound
How it was run: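 Primary CF airway epithelia differentiated ≥4 weeks at air-liquid interface, treated basolaterally 24 h at 37 °C with test compounds in combination with VX809, 0.1% DMSO vehicle. Equivalent current recorded after 5 μM benzamil, 10 μM forskolin plus 1 μM VX770, then CFTR-172/bumetanide 20 μM; vehicle-subtracted AUC normalized to 3 μM VX809 (NAUC), median of n≥4, sigmoid fit for EC50.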

T1 sequence (P13569 with tags, fused parts or gaps DEL508-508): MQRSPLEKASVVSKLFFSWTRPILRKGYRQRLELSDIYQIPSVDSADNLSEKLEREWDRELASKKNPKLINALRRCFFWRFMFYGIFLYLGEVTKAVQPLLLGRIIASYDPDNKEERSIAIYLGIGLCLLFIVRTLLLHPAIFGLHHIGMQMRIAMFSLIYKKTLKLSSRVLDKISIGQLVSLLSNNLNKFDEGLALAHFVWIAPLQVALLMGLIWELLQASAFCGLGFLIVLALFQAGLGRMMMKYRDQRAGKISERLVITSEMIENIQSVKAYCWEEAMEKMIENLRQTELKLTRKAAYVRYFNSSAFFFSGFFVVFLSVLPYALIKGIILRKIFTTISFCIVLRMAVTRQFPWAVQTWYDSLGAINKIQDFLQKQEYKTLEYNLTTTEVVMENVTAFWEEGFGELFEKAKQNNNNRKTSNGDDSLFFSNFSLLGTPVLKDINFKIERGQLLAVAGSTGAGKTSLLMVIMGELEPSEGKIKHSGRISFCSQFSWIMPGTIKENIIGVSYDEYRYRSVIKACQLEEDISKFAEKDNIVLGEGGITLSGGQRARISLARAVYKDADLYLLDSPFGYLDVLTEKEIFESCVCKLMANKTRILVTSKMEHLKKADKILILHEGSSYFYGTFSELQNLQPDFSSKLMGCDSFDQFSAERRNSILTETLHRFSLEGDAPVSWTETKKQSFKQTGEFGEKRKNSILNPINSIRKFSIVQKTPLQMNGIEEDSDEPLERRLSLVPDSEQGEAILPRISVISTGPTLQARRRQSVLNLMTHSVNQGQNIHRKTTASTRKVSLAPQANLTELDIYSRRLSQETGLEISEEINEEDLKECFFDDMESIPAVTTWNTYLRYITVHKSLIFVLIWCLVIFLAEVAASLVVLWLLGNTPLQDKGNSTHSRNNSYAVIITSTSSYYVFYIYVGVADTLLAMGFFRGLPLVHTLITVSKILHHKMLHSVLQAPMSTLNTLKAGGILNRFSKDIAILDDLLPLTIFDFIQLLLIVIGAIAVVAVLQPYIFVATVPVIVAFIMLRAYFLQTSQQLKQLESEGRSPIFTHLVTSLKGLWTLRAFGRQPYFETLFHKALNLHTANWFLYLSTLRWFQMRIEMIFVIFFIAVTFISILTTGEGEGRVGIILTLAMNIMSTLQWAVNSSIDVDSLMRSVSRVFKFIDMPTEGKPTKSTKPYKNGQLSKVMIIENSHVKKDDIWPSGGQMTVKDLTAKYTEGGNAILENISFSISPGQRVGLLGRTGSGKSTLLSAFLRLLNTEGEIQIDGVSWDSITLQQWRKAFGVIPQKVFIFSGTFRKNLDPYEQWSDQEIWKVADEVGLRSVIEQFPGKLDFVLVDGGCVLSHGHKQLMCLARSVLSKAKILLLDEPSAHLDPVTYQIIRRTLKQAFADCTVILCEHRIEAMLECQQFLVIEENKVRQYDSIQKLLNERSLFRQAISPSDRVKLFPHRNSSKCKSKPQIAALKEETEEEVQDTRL

Compound	Nauc @ 3 μM	Nauc @ 10 μM
Cc1ccc(N2C(=O)C3C4CCCN4C4(C(=O)Nc5c(C)cccc54)C3C2=O)c(Cl)c1 (stereo not shown) [Example 128]	++ (NAUC “++” refers to an observed NAUC 170-140% of positive control)	+ (NAUC “+” refers to an observed NAUC <140% of positive control)
O=C1C2C3CCCN3C3(C(=O)Nc4c(Cl)cc(Cl)cc43)C2C(=O)N1c1cc(C(F)(F)F)cc(C(F)(F)F)c1 (stereo not shown) [Example 25]	+++ (NAUC “+++” refers to an observed NAUC >170% of positive control)	+++ (NAUC “+++” refers to an observed NAUC >170% of positive control)
CC1CC2C3C(=O)N(c4cc(Cl)cc(Cl)c4)C(=O)C3C3(C(=O)Nc4c(Cl)cc(Cl)cc43)N2C1 (stereo not shown) [Example 63]	+++ (NAUC “+++” refers to an observed NAUC >170% of positive control)	+++ (NAUC “+++” refers to an observed NAUC >170% of positive control)
O=C1C2C3C[C@H](O)CN3C3(C(=O)Nc4c(Cl)cc(Cl)cc43)C2C(=O)N1c1cc(Cl)cc(Cl)c1 (single isomer, unassigned) [Example 46]	++ (NAUC “++” refers to an observed NAUC 170-140% of positive control)	+ (NAUC “+” refers to an observed NAUC <140% of positive control)
CC1(C)CC2C3C(=O)N(c4cc(Cl)cc(Cl)n4)C(=O)C3C3(C(=O)Nc4c(Cl)cc(Cl)cc43)N2C1 (stereo not shown) [Example 129]	++ (NAUC “++” refers to an observed NAUC 170-140% of positive control)	++ (NAUC “++” refers to an observed NAUC 170-140% of positive control)
NC(=O)c1cccc(N2C(=O)C3C4CCCN4C4(C(=O)Nc5c(Cl)cc(Cl)cc54)C3C2=O)c1 (stereo not shown) [Example 19]	+ (NAUC “+” refers to an observed NAUC <140% of positive control)	++ (NAUC “++” refers to an observed NAUC 170-140% of positive control)
Cc1cccc2c1NC(=O)C21C2C(=O)N(c3cc(Cl)cc(Cl)c3)C(=O)C2C2CCCN21 (stereo not shown) [Example 12]	+ (NAUC “+” refers to an observed NAUC <140% of positive control)	++ (NAUC “++” refers to an observed NAUC 170-140% of positive control)
O=C1C2C(Cc3c(F)cccc3Cl)NC3(C(=O)Nc4c(Cl)cc(Cl)cc43)C2C(=O)N1c1cc(Cl)cc(Cl)c1 (stereo not shown) [Example 217]	++ (NAUC “++” refers to an observed NAUC 170-140% of positive control)	++ (NAUC “++” refers to an observed NAUC 170-140% of positive control)
O=C1C2C3CCCN3C3(C(=O)Nc4c(Cl)cc(Cl)cc43)C2C(=O)N1c1cncc(Cl)c1 (stereo not shown) [Example 20]	+ (NAUC “+” refers to an observed NAUC <140% of positive control)	++ (NAUC “++” refers to an observed NAUC 170-140% of positive control)
O=C1C2C3C[C@H](F)CN3C3(C(=O)Nc4c(Cl)cc(Cl)cc43)C2C(=O)N1c1cc(Cl)cc(Cl)c1 (single isomer, unassigned) [Example 243]	+++ (NAUC “+++” refers to an observed NAUC >170% of positive control)	+++ (NAUC “+++” refers to an observed NAUC >170% of positive control)
COc1c(Cl)cc(N2C(=O)C3C4CC(=C(F)F)CN4C4(C(=O)Nc5c(Cl)cc(Cl)cc54)C3C2=O)cc1Cl (stereo not shown) [Example 121]	++ (NAUC “++” refers to an observed NAUC 170-140% of positive control)	++ (NAUC “++” refers to an observed NAUC 170-140% of positive control)
O=C1C2C3C[C@H](O)CN3C3(C(=O)Nc4ccc(C(F)(F)F)cc43)C2C(=O)N1c1cc(Cl)cc(Cl)c1 (single isomer, unassigned) [Example 50]	++ (NAUC “++” refers to an observed NAUC 170-140% of positive control)	+ (NAUC “+” refers to an observed NAUC <140% of positive control)
O=C1C2C3CCCN3C3(C(=O)Nc4c(Cl)cc(Cl)cc43)C2C(=O)N1c1cc(F)cc(Cl)c1 (stereo not shown) [Example 28]	++ (NAUC “++” refers to an observed NAUC 170-140% of positive control)	+++ (NAUC “+++” refers to an observed NAUC >170% of positive control)
O=C1[C@H]2[C@@H](C(=O)N1c1cc(Cl)cc(Cl)c1)[C@]1(C(=O)Nc3c(Cl)cc(Cl)cc31)N1CCC[C@@H]21 (single isomer, unassigned) [Example 13]	+++ (NAUC “+++” refers to an observed NAUC >170% of positive control)	+++ (NAUC “+++” refers to an observed NAUC >170% of positive control)
C[C@]1(O)CC2C3C(=O)N(c4cccc(C(F)(F)F)n4)C(=O)C3C3(C(=O)Nc4c(Cl)cc(Cl)cc43)N2C1 (stereo partly shown) [Example 253]	+ (NAUC “+” refers to an observed NAUC <140% of positive control)	++ (NAUC “++” refers to an observed NAUC 170-140% of positive control)
COc1c(Cl)cc(N2C(=O)C3C4CC(F)(F)CN4C4(C(=O)Nc5c(Cl)cc(Cl)cc54)C3C2=O)cc1Cl (single isomer, unassigned) [Example 221]	+++ (NAUC “+++” refers to an observed NAUC >170% of positive control)	+++ (NAUC “+++” refers to an observed NAUC >170% of positive control)
O=C1C2C3CCCN3C3(C(=O)Nc4c(F)cc(Cl)cc43)C2C(=O)N1c1cc(F)cc(Cl)c1 (stereo not shown) [Example 37]	+ (NAUC “+” refers to an observed NAUC <140% of positive control)	++ (NAUC “++” refers to an observed NAUC 170-140% of positive control)
O=C1C2C3CCCN3C3(C(=O)Nc4c(Cl)cc(Cl)cc43)C2C(=O)N1c1cccc2c1OC(F)(F)O2 (stereo not shown) [Example 23]	++ (NAUC “++” refers to an observed NAUC 170-140% of positive control)	+ (NAUC “+” refers to an observed NAUC <140% of positive control)
O=C1C2C3CCCN3C3(C(=O)Nc4c(Cl)cc(Cl)cc43)C2C(=O)N1c1cccc(Cl)c1 (stereo not shown) [Example 11]	+ (NAUC “+” refers to an observed NAUC <140% of positive control)	+++ (NAUC “+++” refers to an observed NAUC >170% of positive control)
CC(=O)Oc1c(Cl)cc(Cl)cc1N1C(=O)C2C3C[C@H](Cl)CN3C3(C(=O)Nc4c(Cl)cc(Cl)cc43)C2C1=O (stereo partly shown) [Example 93]	++ (NAUC “++” refers to an observed NAUC 170-140% of positive control)	+++ (NAUC “+++” refers to an observed NAUC >170% of positive control)
[2H]C12C(=O)N(c3cc(Cl)c(OC)c(Cl)c3)C(=O)C1([2H])C1(C(=O)Nc3c(Cl)cc(Cl)cc31)N1CC(C)(C)CC12 (stereo not shown) [Example 149]	+++ (NAUC “+++” refers to an observed NAUC >170% of positive control)	+++ (NAUC “+++” refers to an observed NAUC >170% of positive control)
O=C1C2C3C[C@H](Cl)CN3C3(C(=O)Nc4c(Cl)cc(Cl)cc43)C2C(=O)N1c1cc(O)cc(Cl)c1 (stereo partly shown) [Example 81]	+ (NAUC “+” refers to an observed NAUC <140% of positive control)	++ (NAUC “++” refers to an observed NAUC 170-140% of positive control)
C[C@@]1(O)CC2C3C(=O)N(c4cc(Cl)cc(Cl)n4)C(=O)C3C3(C(=O)Nc4c(Cl)cc(Cl)cc43)N2C1 (stereo partly shown) [Example 206]	++ (NAUC “++” refers to an observed NAUC 170-140% of positive control)	+++ (NAUC “+++” refers to an observed NAUC >170% of positive control)
COc1cc(Cl)cc(N2C(=O)C3C4CCCN4C4(C(=O)Nc5c(Cl)cc(Cl)cc54)C3C2=O)c1 (single isomer, unassigned) [Example 104]	+ (NAUC “+” refers to an observed NAUC <140% of positive control)	++ (NAUC “++” refers to an observed NAUC 170-140% of positive control)
O=C1C2C(Cc3cccc(Cl)c3)NC3(C(=O)Nc4c(Cl)cc(Cl)cc43)C2C(=O)N1c1cc(Cl)cc(Cl)c1 (stereo not shown) [Example 187]	+++ (NAUC “+++” refers to an observed NAUC >170% of positive control)	++ (NAUC “++” refers to an observed NAUC 170-140% of positive control)
O=C1C2C3CCCN3C3(C(=O)Nc4c(Cl)cc(Cl)cc43)C2C(=O)N1c1cc(Cl)cc(Cl)n1 (stereo not shown) [Example 52]	++ (NAUC “++” refers to an observed NAUC 170-140% of positive control)	+++ (NAUC “+++” refers to an observed NAUC >170% of positive control)
O=C1C2C3C[C@H](Cl)CN3C3(C(=O)Nc4c(Cl)cc(Cl)cc43)C2C(=O)N1c1cc(Cl)c(O)c(Cl)c1 (stereo partly shown) [Example 83]	++ (NAUC “++” refers to an observed NAUC 170-140% of positive control)	+++ (NAUC “+++” refers to an observed NAUC >170% of positive control)
O=C1C2C3C[C@H](NS(=O)(=O)c4ccccc4)CN3C3(C(=O)Nc4c(Cl)cc(Cl)cc43)C2C(=O)N1c1cc(Cl)cc(Cl)c1 (single isomer, unassigned) [Example 58]	++ (NAUC “++” refers to an observed NAUC 170-140% of positive control)	+++ (NAUC “+++” refers to an observed NAUC >170% of positive control)
O=C1C2C3CCCN3C3(C(=O)Nc4c(Cl)cc(Cl)cc43)C2C(=O)N1c1cccc(C(F)(F)F)c1 (single isomer, unassigned) [Example 24]	+++ (NAUC “+++” refers to an observed NAUC >170% of positive control)	+++ (NAUC “+++” refers to an observed NAUC >170% of positive control)
